We go through five molecules from ChEMBL document CHEMBL5126513 (Eur J Med Chem, 2022).

A word on the pIC50: it is the IC50 on a negative log10 scale, so that one unit is a factor of ten. Low readings indicate a high IC50, high ones a low IC50. Broadly, the DC50 is the concentration at which degradation of the target reaches its halfway point.

The structures appear in SMILES notation. pIC50: −log10 of the molar value.

Assay [1] has as its target T1, Tyrosine-protein kinase BTK (Homo sapiens, UniProt Q06187). The assay is described as follows: Inhibition of full-length wild-type BTK (unknown origin) measured by HTRF assay.
Assay [2] concerns the target T2, Protein cereblon/Tyrosine-protein kinase BTK (Homo sapiens, UniProt Q06187+Q96SW2). The assay is described as follows: Protac activity at CRBN (unknown origin)/BTK (unknown origin) assessed as BTK degradation. In kind it is protein assay.
For assay [3], the target named is T3, Tyrosine-protein kinase TXK (Homo sapiens, UniProt P42681).
T3 sequence (P42681 whole entry): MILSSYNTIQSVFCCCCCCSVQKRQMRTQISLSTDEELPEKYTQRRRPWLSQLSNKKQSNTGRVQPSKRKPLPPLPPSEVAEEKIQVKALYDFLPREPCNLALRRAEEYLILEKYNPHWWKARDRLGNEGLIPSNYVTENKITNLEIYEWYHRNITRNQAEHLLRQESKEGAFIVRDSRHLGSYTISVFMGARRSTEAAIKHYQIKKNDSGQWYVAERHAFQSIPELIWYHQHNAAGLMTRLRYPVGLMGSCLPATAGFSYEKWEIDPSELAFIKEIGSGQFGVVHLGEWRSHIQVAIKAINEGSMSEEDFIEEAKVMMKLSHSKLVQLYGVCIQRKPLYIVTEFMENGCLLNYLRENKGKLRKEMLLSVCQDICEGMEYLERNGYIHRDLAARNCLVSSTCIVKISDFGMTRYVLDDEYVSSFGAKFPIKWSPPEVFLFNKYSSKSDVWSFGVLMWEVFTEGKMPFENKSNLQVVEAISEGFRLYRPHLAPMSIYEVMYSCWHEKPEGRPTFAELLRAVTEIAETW
The assay is described as follows: Inhibition of TXK (unknown origin).

In assay [4] the target is Tyrosine-protein kinase Blk (Homo sapiens, UniProt P51451). The experiment in a line: Inhibition of BLK (unknown origin).
Assay [5] deals with T2, Protein cereblon/Tyrosine-protein kinase BTK. The assay is described as follows: Protac activity at CRBN/BTK in human MINO cells assessed as BTK degradation. It counts as cell-based.
Assay [6] deals with T1, Tyrosine-protein kinase BTK. The assay is described as follows: Inhibition of BTK (unknown origin).

T1 sequence (Q06187 whole entry): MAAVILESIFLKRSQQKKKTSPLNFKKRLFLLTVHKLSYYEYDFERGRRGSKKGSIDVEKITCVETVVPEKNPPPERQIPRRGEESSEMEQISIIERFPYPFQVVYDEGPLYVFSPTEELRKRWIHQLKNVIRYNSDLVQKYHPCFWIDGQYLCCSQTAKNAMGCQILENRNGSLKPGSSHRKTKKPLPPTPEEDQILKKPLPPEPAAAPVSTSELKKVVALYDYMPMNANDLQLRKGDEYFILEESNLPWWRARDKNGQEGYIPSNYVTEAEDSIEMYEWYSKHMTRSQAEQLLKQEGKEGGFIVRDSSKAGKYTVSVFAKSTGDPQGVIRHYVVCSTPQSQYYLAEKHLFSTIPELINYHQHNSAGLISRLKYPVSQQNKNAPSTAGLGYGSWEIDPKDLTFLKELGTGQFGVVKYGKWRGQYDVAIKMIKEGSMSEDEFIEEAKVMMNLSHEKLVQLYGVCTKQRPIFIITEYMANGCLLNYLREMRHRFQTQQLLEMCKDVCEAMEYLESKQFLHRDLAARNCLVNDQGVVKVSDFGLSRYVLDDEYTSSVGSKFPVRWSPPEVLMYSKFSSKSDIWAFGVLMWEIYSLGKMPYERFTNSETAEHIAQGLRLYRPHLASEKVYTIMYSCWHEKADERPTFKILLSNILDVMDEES
T2 sequence (Q06187 whole entry): as above
T2 sequence (Q96SW2 whole entry): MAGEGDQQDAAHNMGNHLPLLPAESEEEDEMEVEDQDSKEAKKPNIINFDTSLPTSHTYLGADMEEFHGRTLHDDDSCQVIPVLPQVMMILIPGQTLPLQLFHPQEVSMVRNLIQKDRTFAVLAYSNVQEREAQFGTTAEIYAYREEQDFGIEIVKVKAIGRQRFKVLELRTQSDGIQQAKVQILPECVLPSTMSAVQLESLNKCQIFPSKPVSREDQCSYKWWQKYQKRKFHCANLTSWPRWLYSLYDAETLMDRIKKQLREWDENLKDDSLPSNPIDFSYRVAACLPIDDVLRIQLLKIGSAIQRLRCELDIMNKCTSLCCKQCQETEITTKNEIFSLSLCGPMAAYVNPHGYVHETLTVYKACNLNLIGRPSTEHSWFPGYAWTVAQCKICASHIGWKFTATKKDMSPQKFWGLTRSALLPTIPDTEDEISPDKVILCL
Sequence of Tyrosine-protein kinase Blk (P51451 whole entry): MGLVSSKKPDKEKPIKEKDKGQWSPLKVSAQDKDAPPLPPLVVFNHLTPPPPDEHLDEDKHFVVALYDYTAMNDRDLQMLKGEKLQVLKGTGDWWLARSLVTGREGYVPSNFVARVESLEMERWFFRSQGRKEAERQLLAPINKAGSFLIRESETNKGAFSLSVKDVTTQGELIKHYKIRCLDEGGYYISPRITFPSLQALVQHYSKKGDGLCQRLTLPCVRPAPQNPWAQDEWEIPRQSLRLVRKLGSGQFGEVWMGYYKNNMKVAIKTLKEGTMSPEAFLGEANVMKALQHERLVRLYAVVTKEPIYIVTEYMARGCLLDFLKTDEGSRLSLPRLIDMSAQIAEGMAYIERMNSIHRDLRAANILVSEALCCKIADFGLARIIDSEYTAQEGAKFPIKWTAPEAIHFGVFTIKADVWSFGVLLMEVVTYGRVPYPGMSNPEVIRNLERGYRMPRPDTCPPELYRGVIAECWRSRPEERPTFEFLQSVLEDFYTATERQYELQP

`Cc1cc(Nc2ncc3c(n2)N(C)CN(c2cc(NC(=O)c4cccc(C(F)(F)F)c4)ccc2C)C3)n(C)n1`: the pIC50 in assay [1] was 7.97.
Turning to `O=C1CCC(N2C(=O)c3ccc(NCCOCCOCCOCCOCCOCCNC(=O)N[C@H]4CC[C@@H](Nc5ncnc6[nH]cc(C(=O)c7ccc(Oc8ccccc8)cc7Cl)c56)CC4)cc3C2=O)C(=O)N1` (stereo partly specified), the DC50 in assay [2] worked out at 41.9 nM.
For the molecule `CC#CC(=O)N1CC[C@@H](n2c(=O)n(-c3ccc(Oc4ccccc4)cc3)c3c(N)ncnc32)C1` [TIRABRUTINIB], the pIC50 in assay [3] was 6.94; in assay [4], 5.95.
Turning to `Nc1ncnc2c1c(-c1ccc(Oc3ccccc3)cc1)nn2[C@@H]1CCCN(C(=O)c2cn(CCOCCOCCOCCCc3ccc4c(c3)CN(C3CCC(=O)NC3=O)C4=O)nn2)C1` (stereo partly specified), the 50% degradation concentration (DC50) in assay [5] was determined as 9.2 nM.
`COc1ccc(F)cc1C(=O)NCc1ccc(-c2nn([C@@H](C)C(F)(F)F)c(N)c2C(N)=O)cc1` [PIRTOBRUTINIB] had a pIC50 in assay [6] of more than 9.00.
